{
  "source": "ChEMBL document CHEMBL2346562",
  "about": "“Substituted 7-amino-5-thio-thiazolo[4,5-d]pyrimidines as potent and selective antagonists of the fractalkine receptor (CX3CR1)” (J Med Chem, 2013)",
  "key": {"[1]": {"assay": "Clearance in Sprague-Dawley rat at 3 umol/kg, iv or 10 umol/kg, po by LC-MS analysis", "format": "ADME, organism-based", "conditions": "in vivo"}, "physchem": {"assay": "physchem", "conditions": "phosphate buffer, pH 7.4", "description": "Solubility of the compound in phosphate buffer at pH 7.4 after 24 hrs by HPLC analysis"}, "[2]": {"target": "T1, C-C chemokine receptor type 6 (Homo sapiens) (UniProt P51684)", "T1 sequence (whole entry)": "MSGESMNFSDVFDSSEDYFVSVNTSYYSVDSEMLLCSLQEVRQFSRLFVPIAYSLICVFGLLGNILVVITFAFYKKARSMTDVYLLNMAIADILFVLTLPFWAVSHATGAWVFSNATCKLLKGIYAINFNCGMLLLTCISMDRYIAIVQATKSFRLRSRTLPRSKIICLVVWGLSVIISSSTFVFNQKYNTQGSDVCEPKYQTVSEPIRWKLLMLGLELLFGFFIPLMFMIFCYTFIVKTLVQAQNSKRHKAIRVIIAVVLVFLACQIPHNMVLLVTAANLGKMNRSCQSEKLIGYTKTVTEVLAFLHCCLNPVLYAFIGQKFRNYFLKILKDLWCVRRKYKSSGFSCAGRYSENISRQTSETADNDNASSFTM", "assay": "Antagonist activity at CCR6 (unknown origin)"}, "in vitro": {"assay": "in vitro", "conditions": "human, liver microsomes", "description": "Metabolic stability in human liver microsomes assessed as intrinsic clearance by LC-MS/MS analysis"}, "[3]": {"target": "Sodium-dependent dopamine transporter (Homo sapiens) (UniProt Q01959)", "sequence (Q01959 whole entry)": "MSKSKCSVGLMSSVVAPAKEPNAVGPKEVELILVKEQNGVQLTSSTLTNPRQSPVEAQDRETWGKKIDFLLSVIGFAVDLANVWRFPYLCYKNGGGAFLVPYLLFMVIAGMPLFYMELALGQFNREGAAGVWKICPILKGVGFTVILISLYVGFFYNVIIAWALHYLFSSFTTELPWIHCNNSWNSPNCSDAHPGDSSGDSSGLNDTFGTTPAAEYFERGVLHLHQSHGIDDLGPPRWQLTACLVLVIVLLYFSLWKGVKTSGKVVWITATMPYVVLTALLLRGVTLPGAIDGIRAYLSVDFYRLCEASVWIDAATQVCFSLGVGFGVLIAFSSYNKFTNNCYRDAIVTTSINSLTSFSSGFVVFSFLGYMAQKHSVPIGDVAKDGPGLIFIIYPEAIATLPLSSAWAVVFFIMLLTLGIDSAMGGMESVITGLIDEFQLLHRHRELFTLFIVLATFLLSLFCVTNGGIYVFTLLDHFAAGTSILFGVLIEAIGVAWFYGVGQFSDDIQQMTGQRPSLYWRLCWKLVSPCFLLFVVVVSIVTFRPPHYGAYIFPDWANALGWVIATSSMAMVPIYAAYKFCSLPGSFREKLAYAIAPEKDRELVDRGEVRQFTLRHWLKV", "assay": "Binding affinity to dopamine transporter (unknown origin)"}, "[4]": {"target": "C-C chemokine receptor type 5 (Homo sapiens) (UniProt P51681)", "sequence (P51681 whole entry, looked up)": "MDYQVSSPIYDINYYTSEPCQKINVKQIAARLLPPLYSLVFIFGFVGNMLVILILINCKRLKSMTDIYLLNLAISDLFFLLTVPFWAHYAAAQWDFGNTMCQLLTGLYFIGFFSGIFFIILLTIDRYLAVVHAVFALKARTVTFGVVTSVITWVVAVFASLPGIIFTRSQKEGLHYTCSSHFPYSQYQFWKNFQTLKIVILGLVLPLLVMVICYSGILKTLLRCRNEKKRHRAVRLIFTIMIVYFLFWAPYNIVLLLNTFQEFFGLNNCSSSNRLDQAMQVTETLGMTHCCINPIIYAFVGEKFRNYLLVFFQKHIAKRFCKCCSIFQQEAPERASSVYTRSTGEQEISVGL", "assay": "Antagonist activity at CCR5 (unknown origin)"}, "[5]": {"target": "T2, C-X-C chemokine receptor type 5 (Homo sapiens) (UniProt P32302)", "T2 sequence (whole entry)": "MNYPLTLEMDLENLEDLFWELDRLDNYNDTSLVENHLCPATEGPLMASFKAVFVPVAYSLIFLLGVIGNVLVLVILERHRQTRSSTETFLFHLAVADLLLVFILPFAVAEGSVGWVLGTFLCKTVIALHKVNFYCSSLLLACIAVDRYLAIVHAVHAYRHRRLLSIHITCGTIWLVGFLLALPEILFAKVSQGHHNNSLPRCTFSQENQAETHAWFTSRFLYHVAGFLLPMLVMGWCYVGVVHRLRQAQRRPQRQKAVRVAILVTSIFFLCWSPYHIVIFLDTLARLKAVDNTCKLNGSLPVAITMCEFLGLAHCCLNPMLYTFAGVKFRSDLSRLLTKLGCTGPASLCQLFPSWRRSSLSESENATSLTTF", "assay": "Antagonist activity at CXCR5 (unknown origin)"}, "[6]": {"target": "Sodium-dependent noradrenaline transporter (Homo sapiens) (UniProt P23975)", "sequence (P23975 whole entry)": "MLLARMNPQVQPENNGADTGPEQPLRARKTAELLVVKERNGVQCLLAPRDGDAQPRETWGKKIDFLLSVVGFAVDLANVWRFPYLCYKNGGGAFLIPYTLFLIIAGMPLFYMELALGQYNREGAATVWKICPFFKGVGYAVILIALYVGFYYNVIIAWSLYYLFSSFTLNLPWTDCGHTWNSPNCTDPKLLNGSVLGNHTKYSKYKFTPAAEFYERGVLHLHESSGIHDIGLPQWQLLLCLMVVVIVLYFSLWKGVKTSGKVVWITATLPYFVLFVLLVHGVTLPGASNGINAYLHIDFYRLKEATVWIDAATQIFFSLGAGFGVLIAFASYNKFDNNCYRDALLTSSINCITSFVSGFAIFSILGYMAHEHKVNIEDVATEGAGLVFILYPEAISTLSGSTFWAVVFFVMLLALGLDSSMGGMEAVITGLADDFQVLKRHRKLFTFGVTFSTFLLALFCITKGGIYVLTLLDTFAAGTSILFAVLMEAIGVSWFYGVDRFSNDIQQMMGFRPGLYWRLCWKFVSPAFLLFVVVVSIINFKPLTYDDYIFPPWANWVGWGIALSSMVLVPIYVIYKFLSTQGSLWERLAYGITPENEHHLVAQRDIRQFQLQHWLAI", "assay": "Binding affinity to norepinephrine transporter (unknown origin)"}},
  "note": "The source made the active and inactive calls. The rule behind the calls is not given here.",
  "data": [
    {"smiles": "CC(C)C[C@H](CO)Nc1nc(S[C@@H](C)c2ccccc2)nc2nc(N)sc12", "note": "[AZD-8797]", "values": [
      {"measurement": "clearance", "setting": "[1]", "value": 13, "unit": "mL/min/kg"},
      {"measurement": "solubility at 24 h", "setting": "physchem", "value": 22, "unit": "µM"},
      {"measurement": "Activity", "setting": "[2]", "value": "inactive"},
      {"measurement": "microsomal CLint", "setting": "in vitro", "value": 34, "unit": "µL/min/mg"},
      {"measurement": "Activity", "setting": "[3]", "value": "Active"},
      {"measurement": "Activity", "setting": "[4]", "value": "inactive"},
      {"measurement": "Activity", "setting": "[5]", "value": "inactive"},
      {"measurement": "Activity", "setting": "[6]", "value": "Active"}
    ]}
  ]
}
